Reference: patent US11013740B2, “Histone deacetylase 6 selective inhibitors for the treatment of cisplatin-induced peripheral neuropathy” (REGENACY PHARMACEUTICALS, LLC, priority 2015, dated 2021)

Assays:
[1] = tested on: acetylated α-tubulin; experiment: Western blot of acetylated α-tubulin in tibial nerves; assay type: in vivo; settings: saline+compound and cisplatin+compound treated mice, 11 doses
Protocol: (§1) Tibial nerves retrieved from the XF24 assay plate were used for western blot analysis of levels of acetylated α-tubulin and mitochondrial proteins cytochrome c oxidase subunit IV (Cox IV), succinate dehydrogenase complex subunit A (SDHA) and voltage-dependent anion channel (VDAC). Tissues were homogenized in RIPA buffer (50 mM Tris-HCl, pH 7.5, 500 mM NaCl, 2.5 mM MgCl2, 1% NP-40, 10% glycerol) containing proteinase inhibitors by sonication and 10 μg of protein was separated by SDS/PAGE and transferred to PVDF membrane for immunoblot analyses. The membranes were blocked with 5% non-fat dry milk in PBST (phosphate-buffered saline containing 0.1% Tween 20) and probed with primary antibodies recognizing acetylated lysine (Rabbit monoclonal; Abcam, Cambridge, United Kingdom), α-tubulin (Rabbit polyclonal; Cell Signaling Technology, Danvers, Mass.), Cox IV (Mouse monoclonal; Life Technologies, Carlsbad, Calif.), SDHA (Rabbit polyclonal; Cell Signaling Technology, Danvers, Mass.) and VDAC (Rabbit polyclonal; Cell Signaling Technology, Danvers, Mass.) followed by HRP-conjugated anti-mouse, anti-rabbit, or anti-β-actin antibodies (Jackson Laboratory, Bar Harbor, Me.). […] The images were acquired using ImageQuant LAS 4000 (GE Healthcare Life Sciences, Little Chalfont, United Kingdom) and densitometrically analyzed using Image J software.

[2] = tested on: rat DRG neurons; experiment: Mitochondrial movement in cultured DRG neurons; assay type: cell-based; settings: 100 nM co-administered with cisplatin, 3 hours
Protocol: DRG neurons (Lonza) were cultured for 5-7 days before the mitochondrial transport assay. 24 hrs prior to chemotherapy treatment cells were infected with Bacmam 2.0, which labeled mitochondria with GFP. Cells were treated with cisplatin (20-80 μM)+/−compound 001 (100 nM) for 3 hours. Imaging was performed using Zeiss 3i system. Time lapse images were acquired every 2 seconds over the course of 2 min. Image analysis was performed using Fiji and Multiple Kymograph plugin.

[3] = tested on: motor function; experiment: Rotarod test; assay type: in vivo, mice; settings: in combination with cisplatin
Protocol: (§2) To quantify signs of cisplatin-induced pain, the von Frey test was used (see below) which measures the decrease in threshold to induce a withdrawal response to a mechanical stimulus (hyperalgesia, one of the characteristics of CIPN). To assess cisplatin-induced numbness, the adhesive removal test (ART) was used. The time it took for the mouse to have a behavioral response to the patch (i.e. shaking or attempted removal) was recorded as a measure of sensory deficit or numbness. To determine if behavioral changes were due to altered general activity or motor function, the locomotor activity (LMA) test and the rotarod test was used. For LMA mice were placed in an open-field testing cage and movement was measured for 5 minutes. For the rotarod, mice were trained for two days and then tested on the rotarod (with increasing speeds) for 5 minutes. Time on the rotarod was recorded.

[4] = tested on: Cox IV, SDHA and VDAC; experiment: Western blot of mitochondrial marker proteins in tibial nerves; assay type: in vivo; settings: cisplatin-treated mice, 11 injections of compound
Protocol: as §1

[5] = tested on: mitochondrial respiration in tibial nerves; experiment: Mitochondrial bioenergetics analysis of tibial nerves (XF24); assay type: in vivo, mice
Protocol: Tibial nerves were collected on experimental day 30, when the mice have received 2 rounds of cisplatin treatment and 11 injections of compound 001. Tissues were placed into islet capture XF24 microplate (Seahorse Bioscience, North Billerica, Mass.) in XF media with the addition of 5.5 mM glucose, 0.5 mM sodium pyruvate and 1 mM glutamine. Oligomycin (12 μM), FCCP (Carbonyl cyanide 4-(trifluoromethoxy)phenylhydrazone, 20 μM), and Rotenone/Antimycin A (20 μM each) (Sigma-Aldrich, St. Louis, Mo.) were injected sequentially during the assay. An assay cycle with a combination of 3-min mix, 3-min wait, and 4-min measure was repeated 4 times for baseline rates and after each port injection. After the respiratory measures, tissues were harvested and the oxygen consumption rate (OCR) values were normalized to the total protein content of each well. Basal respiration, ATP-linked respiration, proton leak, and maximal respiratory capacity were determined as described previously (Brand M D, and Nicholls D G. Assessing mitochondrial dysfunction in cells. The Biochemical journal. 2011; 435(2):297-312; Ma J, et al. Heat shock protein 70 is necessary to improve mitochondrial bioenergetics and reverse diabetic sensory neuropathy following KU-32 therapy. The Journal of pharmacology and experimental therapeutics. 2014; 348(2):281-92). Briefly, the initial measurements provide a measure of the basal OCR in the absence of respiratory chain poisons. The amount of basal OCR that is coupled to ATP production was determined by addition of the ATP synthase inhibitor oligomycin, which decreased the basal OCR. […] Next, maximal respiratory capacity (MRC) was assessed by addition of the protonophore FCCP, which dissipates the mitochondrial membrane potential and promotes maximal OCR. Lastly, non-mitochondrial respiration was determined by the addition of rotenone and antimycin A, which inhibit the activities of mitochondrial respiratory chain complex I and complex III respectively.

[6] = tested on: general activity; experiment: Locomotor activity (LMA) test; assay type: in vivo, mice; settings: in combination with cisplatin
Protocol: as §2

[7] = tested on: IENF density; experiment: Intra-epidermal nerve fiber (IENF) density in hind paw biopsies; assay type: in vivo, mice
Source text: For quantification of IENFs, biopsies from the plantar surface of the hind paws were collected after 3 doses or 11 doses of compound 001 or vehicle and processed as described previously (Qi-Liang Mao-Ying A K, et al. The anti-diabetic drug metformin protects against chemotherapy-induced peripheral neuropathy in a mouse model. Clinical Cancer Research. 2014); Krukowski K, et al. Prevention of chemotherapy-induced peripheral neuropathy by the small-molecule inhibitor pifithrin-mu. Pain. 2015; 156(11):2184-92). In brief, biopsies were fixed in Zamboni's fixative, cryoprotected in 20% sucrose and then frozen in Optimal Cutting Temperature compound (Sakura Finetek USA, Inc., Torrance, Calif.). 25-μm frozen sections were incubated with antibodies against the pan neuronal marker PGP9.5 (Rabbit; AbD Serotec, Oxford, United Kingdom) and Collagen IV (Goat; Southern Biotech, Birmingham, Ala.) followed by Alexa-594 donkey anti-rabbit (Life Technologies, Carlsbad, Calif.) and Alexa-488 donkey anti-goat (Invitrogen, Grand Island, N.Y.). Three randomly chosen sections from each mouse were imaged and quantified under a Leica SPE confocal microscope (Leica Microsystems, Buffalo Grove, Ill.). Nerve fibers that crossed the collagen-stained dermal/epidermal junction into the epidermis were counted and IENF density was determined as the total number of fibers/length of epidermis (IENFs/mm).

[8] = 2 rounds of cisplatin and 11 injections of compound

O=C(NO)c1cnc(NC2(c3ccccc3)CCC(F)(F)CC2)nc1 [compound 001]
α-tubulin acetylation in tibial nerves [1]: increased α-tubulin acetylation | percentage of moving mitochondria in axons (mitochondrial transport) [2]: prevented this cisplatin-induced decrease in mitochondrial transport | motor function (rotarod) [3]: no effect | Cox IV level in tibial nerve [4]: normalized Cox IV levels in the tibial nerve | mitochondrial respiration (basal, ATP-linked, proton leak, maximal) in tibial nerves [5, 8]: normalized all aspects of the cisplatin-induced decrease in mitochondrial respiration | non-mitochondrial respiration in tibial nerves [5, 8]: not altered | mitochondrial bioenergetics, compound alone ([5]; without cisplatin): did not have any effect on mitochondrial bioenergetics | general activity (locomotor activity) [6]: no effect on general activity | IENF density, prolonged regimen ([7]; 2 cycles of cisplatin and 11 doses of compound): completely reversed the cisplatin-induced loss of IENFs | IENF density, short-term treatment ([7]; cisplatin-treated mice, short-term treatment (3 doses)): did not have any effect on IENF density
